Experiment: Liquid dish neat product liquid-air partition coefficient
Assay type: physicochemical
Details: for Comment Code: Log of liquid dish neat product liquid-air partition coefficient: code letters K, L

Question: With `CC(C)(C)c1ccc(CCC=O)cc1` [Material 601] as the molecule, how does the “Log of liquid dish neat product liquid-air partition coefficient (Comment Code K/L)” value (shortened to “Log … (Comment Code K/L)”) read?
Answer: K (Log of liquid dish neat product liquid-air partition coefficient greater than or equal to −7)

Question: For `CC1=C(C/C=C(\C)C=O)C(C)(C)CCC1` [Material 602], which “Comment Code: Log of liquid dish neat product liquid-air partition coefficient” value (“Comment Code: Log” below) is on record?
Answer: K (Log of liquid dish neat product liquid-air partition coefficient greater than or equal to −7)

Question: What does the source list for `CC(C)C(=O)OC1CC2CCC1(C)C2(C)C` (stereo not drawn) [Material 603]?
Answer: Log of liquid dish neat product liquid-air partition coefficient (Comment Code K/L): K (Log of liquid dish neat product liquid-air partition coefficient greater than or equal to −7); Comment Code: Log of liquid dish neat product liquid-air partition coefficient: K (Log of liquid dish neat product liquid-air partition coefficient greater than or equal to −7)

Question: With `C=C1C2CCC(C)(OCC)C1CCC2(C)C` (stereo not drawn) [Material 606] as the molecule, how does the “Log … (Comment Code K/L)” value read?
Answer: K (Log of liquid dish neat product liquid-air partition coefficient greater than or equal to −7)

Question: With `CCOCOC1CCCCCCCCCCC1` [Material 607] as the molecule, how does the “Log … (Comment Code K/L)” value read?
Answer: K (Log of liquid dish neat product liquid-air partition coefficient greater than or equal to −7)

Question: For `CC(C)=CCCC(C)=C1CC=C(C)CC1` [Material 608], which “Log … (Comment Code K/L)” value is on record?
Answer: K (Log of liquid dish neat product liquid-air partition coefficient greater than or equal to −7)

Question: Which “Log … (Comment Code K/L)” value does the source give for `CC1=CC(=O)CC(C)C12CCC(=C(C)C)C2` (stereo not drawn) [Material 610] here?
Answer: K (Log of liquid dish neat product liquid-air partition coefficient greater than or equal to −7)

Question: For `C=C(C)C1CCC(C)(OC(C)=O)CC1` (stereo not drawn) [Material 611], which “Log … (Comment Code K/L)” value is on record?
Answer: K (Log of liquid dish neat product liquid-air partition coefficient greater than or equal to −7)

Question: Which “Log … (Comment Code K/L)” value does the source give for `C=C(C)C1CCC(C)(O)CC1` (stereo not drawn) [Material 612] here?
Answer: K (Log of liquid dish neat product liquid-air partition coefficient greater than or equal to −7)

Question: Which “Log … (Comment Code K/L)” value does the source give for `C=CC(=C)CCC=C(C)CCC=C(C)C=O` [Material 613] here?
Answer: K (Log of liquid dish neat product liquid-air partition coefficient greater than or equal to −7)

Question: For `C=C1C=CC(C(C)CCC=C(C)C)CC1` (stereo not drawn) [Material 614], which “Log … (Comment Code K/L)” value is on record?
Answer: K (Log of liquid dish neat product liquid-air partition coefficient greater than or equal to −7)

Question: Which “Log … (Comment Code K/L)” value does the source give for `C=C(C)C1CCC2(C)CCCC(=C)C2C1` (stereo not drawn) [Material 615] here?
Answer: K (Log of liquid dish neat product liquid-air partition coefficient greater than or equal to −7)

Question: Which “Log … (Comment Code K/L)” value does the source give for `C=C1C2CCC(C2)C1(C)CCC=C(C)CO` (stereo not drawn) [Material 616] here?
Answer: K (Log of liquid dish neat product liquid-air partition coefficient greater than or equal to −7)

Question: What about the “Comment Code: Log” value of the same molecule?
Answer: K (Log of liquid dish neat product liquid-air partition coefficient greater than or equal to −7)

Question: Which “Log … (Comment Code K/L)” value does the source give for `COC(Cc1ccccc1)OC` [Material 627] here?
Answer: K (Log of liquid dish neat product liquid-air partition coefficient greater than or equal to −7)

Question: What about the “Comment Code: Log” value of the same molecule?
Answer: K (Log of liquid dish neat product liquid-air partition coefficient greater than or equal to −7)

Question: For `C=CC(=C)CCC=C(C)CCC=C(C)C` [Material 628], which “Log … (Comment Code K/L)” value is on record?
Answer: K (Log of liquid dish neat product liquid-air partition coefficient greater than or equal to −7)

Question: With `CC(=O)C=CC12OC1(C)CCCC2(C)C` (stereo not drawn) [Material 636] as the molecule, how does the “Log … (Comment Code K/L)” value read?
Answer: K (Log of liquid dish neat product liquid-air partition coefficient greater than or equal to −7)

Question: With `CC(C)(O)CCc1ccccc1` [Material 639] as the molecule, how does the “Log … (Comment Code K/L)” value read?
Answer: K (Log of liquid dish neat product liquid-air partition coefficient greater than or equal to −7)

Question: Which “Comment Code: Log” value does the source give for `CC(=O)CCc1ccccc1` [Material 640] here?
Answer: K (Log of liquid dish neat product liquid-air partition coefficient greater than or equal to −7)

Question: With `CC(C)CC(=O)OCc1ccccc1` [Material 645] as the molecule, how does the “Comment Code: Log” value read?
Answer: K (Log of liquid dish neat product liquid-air partition coefficient greater than or equal to −7)

Question: Which “Comment Code: Log” value does the source give for `CC(C)C(=O)OCc1ccccc1` [Material 647] here?
Answer: K (Log of liquid dish neat product liquid-air partition coefficient greater than or equal to −7)

Question: Which “Log … (Comment Code K/L)” value does the source give for `CC(C)(O)Cc1ccccc1` [Material 649] here?
Answer: K (Log of liquid dish neat product liquid-air partition coefficient greater than or equal to −7)

Question: Which “Log … (Comment Code K/L)” value does the source give for `CC(C)C1OCCC2(CC3CCC2(C)C3(C)C)O1` (stereo not drawn) [Material 659] here?
Answer: K (Log of liquid dish neat product liquid-air partition coefficient greater than or equal to −7)

Question: What about the “Comment Code: Log” value of the same molecule?
Answer: K (Log of liquid dish neat product liquid-air partition coefficient greater than or equal to −7)

Question: For `CC(C)=CCCC1=CCC(C#N)CC1` (stereo not drawn) [Material 660], which “Log … (Comment Code K/L)” value is on record?
Answer: K (Log of liquid dish neat product liquid-air partition coefficient greater than or equal to −7)

Question: For `COc1ccc(COC(C)=O)cc1` [Material 664], which “Comment Code: Log” value is on record?
Answer: K (Log of liquid dish neat product liquid-air partition coefficient greater than or equal to −7)

Question: For `COc1ccc(COC=O)cc1` [Material 665], which “Comment Code: Log” value is on record?
Answer: K (Log of liquid dish neat product liquid-air partition coefficient greater than or equal to −7)

Question: With `CCCCCOC(=O)C=Cc1ccccc1` [Material 671] as the molecule, how does the “Log … (Comment Code K/L)” value read?
Answer: K (Log of liquid dish neat product liquid-air partition coefficient greater than or equal to −7)

Question: Which “Comment Code: Log” value does the source give for `CCCCCOC(=O)c1ccccc1` [Material 672] here?
Answer: K (Log of liquid dish neat product liquid-air partition coefficient greater than or equal to −7)

Question: For `C[C@@H]1CC[C@H]2C(C)(C)[C@H]3C[C@@]12CC1OC(C)(C)OC13C` (stereo partly drawn) [Material 674], which “Log … (Comment Code K/L)” value is on record?
Answer: K (Log of liquid dish neat product liquid-air partition coefficient greater than or equal to −7)

Question: What about the “Comment Code: Log” value of the same molecule?
Answer: K (Log of liquid dish neat product liquid-air partition coefficient greater than or equal to −7)

Question: For `CC1(O)CCC2=C(CCCC2(C)C)C1` (stereo not drawn) [Material 675], which “Log … (Comment Code K/L)” value is on record?
Answer: K (Log of liquid dish neat product liquid-air partition coefficient greater than or equal to −7)

Question: Which “Log … (Comment Code K/L)” value does the source give for `CC1(O)CCC2=C(CCCC2(C)C)C1` (stereo not drawn) [Material 676] here?
Answer: K (Log of liquid dish neat product liquid-air partition coefficient greater than or equal to −7)

Question: For `CC1C(C)(C)C2CCC3CC(C)(C)OC3C2C1(C)C` (stereo not drawn) [Material 679], which “Log … (Comment Code K/L)” value is on record?
Answer: K (Log of liquid dish neat product liquid-air partition coefficient greater than or equal to −7)

Question: What about the “Comment Code: Log” value of the same molecule?
Answer: K (Log of liquid dish neat product liquid-air partition coefficient greater than or equal to −7)

Question: For `CC1C(C)(C)C2CCC3CC(C)(C)OC3C2C1(C)C` (stereo not drawn) [Material 680], which “Log … (Comment Code K/L)” value is on record?
Answer: K (Log of liquid dish neat product liquid-air partition coefficient greater than or equal to −7)

Question: What about the “Comment Code: Log” value of the same molecule?
Answer: K (Log of liquid dish neat product liquid-air partition coefficient greater than or equal to −7)

Source: patent publication US20160090556A1, “PRODUCTS COMPRISING MALODOR REDUCTION MATERIALS” (The Procter & Gamble Company, priority 2014, published 2016)
